Measurements reported in ChEMBL document CHEMBL5465560, “Selectivity Literature for EUbOPEN Chemogenomic Library” (2024).
pIC50: −log10 of the molar value.

Tests used:
[1] = molecular target: Serine/threonine-protein kinase 25 (Homo sapiens) (UniProt O00506); assay: Selectivity interaction (KinomeScan (DiscoverX)) EUB0000666a STK25; details: at 10 µM
[2] = molecular target: Ribosomal protein S6 kinase alpha-6 (Homo sapiens, UniProt Q9UK32); assay: Selectivity interaction (KinomeScan (DiscoverX)) EUB0000666a RPS6KA6; details: at 10 µM
[3] = molecular target: T1, Eukaryotic elongation factor 2 kinase (Homo sapiens) (UniProt O00418); assay: Selectivity interaction (Kinase panel (literature)) EUB0001199aCl EEF2K; details: at 1 µM
T1 sequence (whole entry): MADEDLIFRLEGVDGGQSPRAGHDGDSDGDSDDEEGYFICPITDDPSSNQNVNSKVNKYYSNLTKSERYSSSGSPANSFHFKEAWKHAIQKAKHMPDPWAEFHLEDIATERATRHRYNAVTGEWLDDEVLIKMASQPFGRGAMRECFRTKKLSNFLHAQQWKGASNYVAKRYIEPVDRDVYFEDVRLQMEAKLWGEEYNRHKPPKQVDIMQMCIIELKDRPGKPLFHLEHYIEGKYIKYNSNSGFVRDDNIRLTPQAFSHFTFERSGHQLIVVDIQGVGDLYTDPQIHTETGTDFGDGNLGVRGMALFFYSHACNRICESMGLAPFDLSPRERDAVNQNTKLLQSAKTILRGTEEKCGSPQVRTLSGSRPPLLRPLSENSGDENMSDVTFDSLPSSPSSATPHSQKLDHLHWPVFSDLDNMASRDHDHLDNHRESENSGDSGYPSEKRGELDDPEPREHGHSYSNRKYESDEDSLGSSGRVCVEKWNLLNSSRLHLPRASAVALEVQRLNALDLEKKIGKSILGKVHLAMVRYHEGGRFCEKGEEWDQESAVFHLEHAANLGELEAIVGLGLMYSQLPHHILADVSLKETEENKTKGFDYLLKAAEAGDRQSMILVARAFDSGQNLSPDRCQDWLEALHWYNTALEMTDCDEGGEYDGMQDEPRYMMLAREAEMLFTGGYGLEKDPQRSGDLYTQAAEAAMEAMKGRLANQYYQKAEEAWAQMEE

[4] = molecular target: Ribosomal protein S6 kinase beta-1 (Homo sapiens, UniProt P23443); assay: Selectivity interaction (KinomeScan (DiscoverX)) EUB0000607a RPS6KB1; details: at 10 µM
Sequence of Ribosomal protein S6 kinase beta-1 (P23443 whole entry, looked up): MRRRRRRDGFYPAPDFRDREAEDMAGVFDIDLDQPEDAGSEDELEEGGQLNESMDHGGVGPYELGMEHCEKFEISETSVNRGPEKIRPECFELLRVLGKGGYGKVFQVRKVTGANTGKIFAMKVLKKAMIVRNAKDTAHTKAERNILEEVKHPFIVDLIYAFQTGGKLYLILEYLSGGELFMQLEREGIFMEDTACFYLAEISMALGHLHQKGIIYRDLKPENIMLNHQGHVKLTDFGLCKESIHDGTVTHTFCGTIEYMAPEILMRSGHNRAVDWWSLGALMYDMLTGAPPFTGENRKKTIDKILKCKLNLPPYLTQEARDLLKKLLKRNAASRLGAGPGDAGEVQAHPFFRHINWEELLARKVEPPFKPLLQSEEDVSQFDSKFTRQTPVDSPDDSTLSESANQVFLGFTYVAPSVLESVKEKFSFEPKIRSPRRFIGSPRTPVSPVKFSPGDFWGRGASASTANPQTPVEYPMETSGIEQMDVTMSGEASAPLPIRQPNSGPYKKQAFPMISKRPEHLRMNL

[5] = molecular target: Insulin receptor (Homo sapiens, UniProt P06213); assay: Selectivity interaction (SelectScreen profiling (Invitrogen)) EUB0000607a INSR; details: at 2 µM
Sequence of Insulin receptor (P06213 28-758 limits assumed): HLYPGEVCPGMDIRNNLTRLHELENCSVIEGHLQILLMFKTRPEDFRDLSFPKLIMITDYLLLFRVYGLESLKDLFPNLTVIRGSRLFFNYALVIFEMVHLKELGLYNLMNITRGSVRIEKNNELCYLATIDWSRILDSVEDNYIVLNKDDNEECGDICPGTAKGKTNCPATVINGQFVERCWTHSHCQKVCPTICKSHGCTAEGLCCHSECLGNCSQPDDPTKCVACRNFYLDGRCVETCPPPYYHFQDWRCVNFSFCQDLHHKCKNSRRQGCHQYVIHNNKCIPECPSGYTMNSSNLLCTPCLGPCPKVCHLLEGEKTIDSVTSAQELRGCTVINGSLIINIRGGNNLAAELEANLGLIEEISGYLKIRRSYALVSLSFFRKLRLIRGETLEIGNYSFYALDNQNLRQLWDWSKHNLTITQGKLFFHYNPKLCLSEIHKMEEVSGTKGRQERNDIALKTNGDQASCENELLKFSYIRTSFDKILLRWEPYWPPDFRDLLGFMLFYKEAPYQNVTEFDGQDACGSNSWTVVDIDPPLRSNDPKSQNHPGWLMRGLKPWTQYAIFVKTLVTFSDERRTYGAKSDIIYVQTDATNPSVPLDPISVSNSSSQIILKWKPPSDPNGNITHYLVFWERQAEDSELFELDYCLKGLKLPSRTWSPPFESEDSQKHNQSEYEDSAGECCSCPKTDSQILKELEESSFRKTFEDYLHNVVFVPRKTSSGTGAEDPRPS
Sequence of Insulin receptor (P06213 763-1382 limits assumed): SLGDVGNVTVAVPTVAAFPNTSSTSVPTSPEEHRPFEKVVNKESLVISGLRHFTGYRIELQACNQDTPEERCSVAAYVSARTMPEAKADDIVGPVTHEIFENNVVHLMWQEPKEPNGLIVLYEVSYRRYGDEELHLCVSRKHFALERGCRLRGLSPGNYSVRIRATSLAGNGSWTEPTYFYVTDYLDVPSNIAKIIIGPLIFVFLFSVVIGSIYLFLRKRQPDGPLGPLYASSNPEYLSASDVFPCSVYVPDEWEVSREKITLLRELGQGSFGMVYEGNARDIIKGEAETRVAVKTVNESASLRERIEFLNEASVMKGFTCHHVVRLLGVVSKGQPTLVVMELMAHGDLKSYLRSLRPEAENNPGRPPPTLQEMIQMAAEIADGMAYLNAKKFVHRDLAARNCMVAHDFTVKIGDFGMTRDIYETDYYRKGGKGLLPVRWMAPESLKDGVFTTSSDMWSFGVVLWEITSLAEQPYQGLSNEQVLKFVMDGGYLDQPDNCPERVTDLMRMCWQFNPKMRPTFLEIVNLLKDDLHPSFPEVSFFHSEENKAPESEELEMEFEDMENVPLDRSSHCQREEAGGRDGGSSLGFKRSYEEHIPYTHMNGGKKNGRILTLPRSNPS

[6] = molecular target: Tyrosine-protein kinase SYK (Homo sapiens, UniProt P43405); assay: Selectivity interaction (Upstate Kinase Profiler service (Millipore)) EUB0000056c SYK; details: at 1 µM
[7] = molecular target: Serine/threonine-protein kinase PAK 1 (Homo sapiens) (UniProt Q13153); assay: Selectivity interaction (Kinase panel (Invitrogen)) EUB0000639a PAK1; details: at 200 nM
[8] = molecular target: Cyclin-dependent kinase 5/CDK5 activator 1 (Homo sapiens) (UniProt Q00535+Q15078); assay: Selectivity interaction (ProQinase) EUB0000171b CDK5; type: protein-complex assay
Sequence of Cyclin-dependent kinase 5/CDK5 activator 1 (Homo sapiens) (Q00535 whole entry): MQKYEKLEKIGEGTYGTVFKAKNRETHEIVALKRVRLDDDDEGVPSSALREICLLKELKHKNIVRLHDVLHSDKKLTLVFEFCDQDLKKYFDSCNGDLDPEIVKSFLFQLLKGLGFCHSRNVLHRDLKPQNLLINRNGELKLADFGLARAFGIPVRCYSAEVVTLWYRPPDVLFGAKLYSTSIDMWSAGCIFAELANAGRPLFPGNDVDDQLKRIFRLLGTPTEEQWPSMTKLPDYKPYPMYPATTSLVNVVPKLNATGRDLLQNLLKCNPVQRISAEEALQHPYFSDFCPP
Sequence of Cyclin-dependent kinase 5/CDK5 activator 1 (Homo sapiens) (Q15078 99-307 partner limits assumed): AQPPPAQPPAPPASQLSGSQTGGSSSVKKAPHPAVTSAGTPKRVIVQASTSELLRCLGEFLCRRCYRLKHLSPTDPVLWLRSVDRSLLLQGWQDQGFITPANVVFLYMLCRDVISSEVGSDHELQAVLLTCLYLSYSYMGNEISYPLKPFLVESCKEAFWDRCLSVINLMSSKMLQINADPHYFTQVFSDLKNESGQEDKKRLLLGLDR

[9] = molecular target: Sodium-dependent serotonin transporter (Homo sapiens, UniProt P31645); assay: Selectivity interaction (Panel of non-epigenetic targets (kinases, GPCRs, ion channels, and transporters, Eurofins) ) EUB0000271b SLC6A4; details: at 1 µM
Sequence of Sodium-dependent serotonin transporter (P31645 whole entry, looked up): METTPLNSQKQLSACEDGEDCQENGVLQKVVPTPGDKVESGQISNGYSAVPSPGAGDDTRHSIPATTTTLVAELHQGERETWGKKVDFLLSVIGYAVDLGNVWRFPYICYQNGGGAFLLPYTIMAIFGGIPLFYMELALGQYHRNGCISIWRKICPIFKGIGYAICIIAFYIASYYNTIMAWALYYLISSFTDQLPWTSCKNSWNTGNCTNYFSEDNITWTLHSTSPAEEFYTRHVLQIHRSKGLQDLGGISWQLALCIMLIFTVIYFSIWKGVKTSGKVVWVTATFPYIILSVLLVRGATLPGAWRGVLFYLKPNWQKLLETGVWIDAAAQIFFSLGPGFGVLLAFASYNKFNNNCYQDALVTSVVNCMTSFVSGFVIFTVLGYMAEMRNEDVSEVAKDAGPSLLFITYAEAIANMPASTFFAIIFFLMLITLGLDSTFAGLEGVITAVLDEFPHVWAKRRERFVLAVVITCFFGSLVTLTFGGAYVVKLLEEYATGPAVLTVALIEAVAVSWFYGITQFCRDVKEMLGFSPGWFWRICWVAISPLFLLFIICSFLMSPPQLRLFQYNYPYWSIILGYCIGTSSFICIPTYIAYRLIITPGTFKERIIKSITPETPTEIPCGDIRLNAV

[10] = molecular target: Protein kinase C eta type (Homo sapiens) (UniProt P24723); assay: Selectivity interaction (KinomeScan (DiscoverX)) EUB0000695a PRKCH; details: at 100 nM
[11] = molecular target: T2, Serine/threonine-protein kinase 17B (Homo sapiens) (UniProt O94768); assay: Selectivity interaction (KinomeScan (DiscoverX)) EUB0000595a STK17B; details: at 10 µM
T2 sequence (whole entry): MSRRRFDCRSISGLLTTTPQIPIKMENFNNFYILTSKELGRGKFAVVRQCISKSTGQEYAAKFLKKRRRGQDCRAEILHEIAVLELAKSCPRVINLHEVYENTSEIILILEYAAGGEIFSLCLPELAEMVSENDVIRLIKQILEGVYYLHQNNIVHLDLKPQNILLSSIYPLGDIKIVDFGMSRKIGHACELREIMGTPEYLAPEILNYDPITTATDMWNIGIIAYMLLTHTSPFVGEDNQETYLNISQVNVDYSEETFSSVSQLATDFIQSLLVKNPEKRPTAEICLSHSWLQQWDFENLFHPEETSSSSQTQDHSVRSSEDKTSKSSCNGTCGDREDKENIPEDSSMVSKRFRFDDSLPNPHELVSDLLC

[12] = molecular target: Homeodomain-interacting protein kinase 3 (Homo sapiens, UniProt Q9H422); assay: Selectivity interaction (Enzymatic assay (Eurofins)) EUB0001049a HIPK3
Sequence of Homeodomain-interacting protein kinase 3 (Q9H422 whole entry): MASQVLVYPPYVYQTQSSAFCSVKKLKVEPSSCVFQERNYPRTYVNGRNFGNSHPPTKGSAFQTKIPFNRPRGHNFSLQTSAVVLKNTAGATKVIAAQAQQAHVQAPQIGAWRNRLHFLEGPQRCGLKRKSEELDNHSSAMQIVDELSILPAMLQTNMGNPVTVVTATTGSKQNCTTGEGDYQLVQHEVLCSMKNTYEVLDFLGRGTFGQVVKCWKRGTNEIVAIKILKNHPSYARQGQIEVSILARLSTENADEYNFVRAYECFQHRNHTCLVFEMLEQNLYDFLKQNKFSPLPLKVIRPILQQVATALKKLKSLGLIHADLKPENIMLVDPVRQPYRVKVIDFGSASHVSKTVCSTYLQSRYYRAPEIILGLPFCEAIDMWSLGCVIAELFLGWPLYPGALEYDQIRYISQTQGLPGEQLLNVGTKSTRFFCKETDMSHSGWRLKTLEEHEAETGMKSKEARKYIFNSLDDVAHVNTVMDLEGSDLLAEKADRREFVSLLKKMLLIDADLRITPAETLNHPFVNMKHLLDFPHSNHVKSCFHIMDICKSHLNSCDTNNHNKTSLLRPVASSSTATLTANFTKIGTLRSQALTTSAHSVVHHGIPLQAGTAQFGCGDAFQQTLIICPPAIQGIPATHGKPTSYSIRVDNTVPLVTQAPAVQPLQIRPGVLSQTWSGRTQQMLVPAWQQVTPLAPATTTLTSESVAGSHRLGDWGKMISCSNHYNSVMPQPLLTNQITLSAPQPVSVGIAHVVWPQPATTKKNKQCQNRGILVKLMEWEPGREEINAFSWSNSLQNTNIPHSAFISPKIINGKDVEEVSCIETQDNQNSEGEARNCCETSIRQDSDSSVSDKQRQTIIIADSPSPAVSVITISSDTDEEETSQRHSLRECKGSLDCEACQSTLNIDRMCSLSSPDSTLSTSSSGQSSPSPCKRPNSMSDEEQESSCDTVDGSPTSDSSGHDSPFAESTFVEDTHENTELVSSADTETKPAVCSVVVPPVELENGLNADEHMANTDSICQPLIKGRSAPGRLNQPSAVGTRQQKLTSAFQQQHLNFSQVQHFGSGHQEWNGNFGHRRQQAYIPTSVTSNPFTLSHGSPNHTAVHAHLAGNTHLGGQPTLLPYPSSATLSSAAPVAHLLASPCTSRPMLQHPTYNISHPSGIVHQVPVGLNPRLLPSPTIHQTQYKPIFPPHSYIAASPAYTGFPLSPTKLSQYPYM

[13] = Selectivity interaction (Ambit KINOMEscan and KiNATiv profiling in Jurkat cells) EUB0000090b CDPK1; details: Selectivity number of off-targets 9; Selectivity number of targets 456; Source Knowledge https://www.nature.com/articles/nchembio.2166; at 1 µM
[14] = molecular target: Cyclin-dependent kinase 5 (Homo sapiens, UniProt Q00535); assay: Selectivity interaction (KinomeScan (DiscoverX)) EUB0000655a CDK5; details: at 10 µM
Sequence of Cyclin-dependent kinase 5 (Q00535 whole entry, looked up): as the sequence (Q00535 whole entry) above

[15] = molecular target: Mitogen-activated protein kinase kinase kinase 9 (Homo sapiens) (UniProt P80192); assay: Selectivity interaction (KinomeScan (DiscoverX)) EUB0001079a MAP3K9; details: at 1 µM
[16] = molecular target: T3, Phosphatidylinositol 5-phosphate 4-kinase type-2 gamma (Homo sapiens) (UniProt Q8TBX8); assay: Selectivity interaction (KinomeScan (DiscoverX)) EUB0000618a PIP4K2C; details: at 10 µM
T3 sequence (whole entry): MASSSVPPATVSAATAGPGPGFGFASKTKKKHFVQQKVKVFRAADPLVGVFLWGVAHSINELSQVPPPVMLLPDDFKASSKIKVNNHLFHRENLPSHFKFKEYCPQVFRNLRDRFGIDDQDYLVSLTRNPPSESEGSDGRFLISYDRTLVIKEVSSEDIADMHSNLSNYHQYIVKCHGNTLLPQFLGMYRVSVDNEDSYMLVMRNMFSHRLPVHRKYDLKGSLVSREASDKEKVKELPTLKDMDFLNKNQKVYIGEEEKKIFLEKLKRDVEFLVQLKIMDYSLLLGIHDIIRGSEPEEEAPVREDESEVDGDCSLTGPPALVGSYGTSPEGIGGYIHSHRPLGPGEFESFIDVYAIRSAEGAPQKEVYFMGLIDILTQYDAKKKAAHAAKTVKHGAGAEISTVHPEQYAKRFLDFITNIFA

Sequence of Serine/threonine-protein kinase 25 (Homo sapiens) (O00506 whole entry, looked up): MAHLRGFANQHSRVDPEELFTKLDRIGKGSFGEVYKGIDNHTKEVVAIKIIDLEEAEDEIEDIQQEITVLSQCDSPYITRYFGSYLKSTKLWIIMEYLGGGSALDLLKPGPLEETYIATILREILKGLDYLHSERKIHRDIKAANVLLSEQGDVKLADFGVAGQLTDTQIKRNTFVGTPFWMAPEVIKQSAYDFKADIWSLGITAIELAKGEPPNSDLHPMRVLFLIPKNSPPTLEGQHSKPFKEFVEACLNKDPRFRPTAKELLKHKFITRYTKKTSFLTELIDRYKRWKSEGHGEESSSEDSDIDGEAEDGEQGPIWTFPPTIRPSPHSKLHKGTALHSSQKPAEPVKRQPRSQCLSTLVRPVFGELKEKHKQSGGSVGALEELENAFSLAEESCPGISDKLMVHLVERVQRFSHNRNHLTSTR

With O=C(NOC[C@H](O)CO)c1ccc(F)c(F)c1Nc1ccc(I)cc1F the % of control [1] was 91% and the % of control [2] was 75%.
In the case of CN1Cc2nccc(-c3cn(C)nc3-c3ccc(F)cc3)c2C1=O, the % of inhibition [3] was -5%.
CNC(=O)Nc1ccc(-c2nc(N3CC4CCC(C3)O4)c3cnn(C4CCC5(CC4)OCCO5)c3n2)cc1 gave a % of control [4] of 100% and a % of inhibition [5] of 4%.
For Cc1ccc(-c2ccc3c(ccc4sc5c(c43)NC[C@@H](C)NC5=O)n2)cn1, the % of inhibition [6] was -7%.
CC[C@@H]1[C@H](F)C(=O)N[C@@H]1COc1nccc2cc(C(N)=O)c(OC)cc12 [ZIMLOVISERTIB] showed a % of inhibition [7] of -9.19%.
In the case of C=CC(=O)Nc1cccc(C(=O)Nc2ccc(Nc3cc(-c4[nH]c(SC)nc4C)ccn3)cc2)c1, the % of control ([8]; at 1 µM) was 77% and the % of control ([8]; at 5 µM) was 54%.
Cc1cc(C)cc([C@@H]2c3cc(C)ccc3NC(=O)CN2C(=O)c2ccc(Br)s2)c1 gave a % of inhibition [9] of -17%.
Cc1cc(F)c(C(=O)Nc2cccc(-c3nncn3C(C)C)n2)cc1-n1cnc(C2CC2)c1 gave a % of control [10] of 91%.
In the case of COCC(=O)NC/C=C/c1ccc2ncnc(Nc3ccc(Oc4ccc(C)nc4)c(C)c3)c2c1 [CP-724714], the % of control [11] was 100%.
In the case of COc1cc(Nc2nc(C)cc(-c3cnn4nc(OC)ccc34)n2)cc(C(F)(F)F)c1, the pIC50 [12] was under 5.00.
With CN(C)C/C=C/C(=O)Nc1ccc(C(=O)N2CCCC(Nc3ncc(Cl)c(-c4c[nH]c5ccccc45)n3)C2)cc1 (configuration not stated) the “% of control” value [13] was 7%.
CN(C)CCOc1ccc(-c2nc(-c3ccncc3)c(-c3ccc4c(c3)CC/C4=N\O)[nH]2)cc1 gave a % of control [14] of 100%.
In the case of Nc1cnc(N2CCc3cc(S(=O)(=O)Nc4c(F)cc(Cl)cc4F)cc(N4CCCC4=O)c32)nc1 [TP-020n], the % of control [15] was 100%.
O[C@H]1CC[C@H](Nc2ncc3nc(Nc4c(F)cc(F)cc4F)n([C@H]4CCOC4)c3n2)CC1 showed a % of control [16] of 32%.
